ChEMBL document CHEMBL1154198, “Chemical genetics of Plasmodium falciparum” (Nature, 2010)

Tests used:
Plasmodium falciparum [1] = test: ST_JUDE: Plasmodium falciparum 3D7 EC50 (uM) as measured by SYBR green dye; format: functional, organism-based
Plasmodium falciparum [2] = test: ST_JUDE: Plasmodium falciparum K1 EC50 (uM) as measured by SYBR green dye; format: functional, organism-based

SMILES	EC50 (Plasmodium falciparum [1]) [µM]	EC50 (Plasmodium falciparum [2]) [µM]
CC(=O)OCCCCCCCCCCC[N+]1(C)CCCCC1	> 15	5.48
CCCCc1ccc(NS(=O)(=O)c2cc3c4c(c2)CCN4C(=O)CC3)cc1	> 15	> 15
CC(NC(=S)Nc1cccc([N+](=O)[O-])c1)c1ccc(C(C)(C)C)cc1 (stereo unspecified)	> 15	6.22
Cc1cccc(/C=C/c2ccc3cccc(O)c3n2)c1O	4.68	1.33
O=C(Cc1ccccc1)N(Cc1cccnc1)c1nc2ccc(Cl)cc2s1	> 15	> 15
Cc1nnc(NCCN2CCOCC2)nc1O	> 15	> 15
O=C(N1CCCC1)C12CC3CC(CC(C3)C1)C2	8.15	7.65
CCCSc1nnc(Cn2c(=O)sc3ccccc32)n1C	> 15	> 15
COc1cc(/C=C(\C#N)c2nc(-c3ccc(Cl)cc3)cs2)cc([N+](=O)[O-])c1O	> 15	> 15
CCN(CC)CCNC(=O)c1ccc(Cn2c(SCc3cccc(C)c3)nc3ccncc32)cc1	6.75	> 15
COc1ccccc1/C=C/CN1CCC2(CCC(CNC(=O)C3CCOCC3)O2)CC1 (stereo unspecified)	> 15	> 15
Cc1c(Cl)c(C(F)(F)F)nn1CC(=O)Nc1cccc(C(F)(F)F)c1	> 15	4.43
CC[n+]1cccc(-c2nc3ccccc3s2)c1	7.66	5.92
CCCCN(C)Cc1c(C)nc2ccc(OCc3ccccc3)cc2c1O	> 15	> 15
O=C(COc1ccc(Cl)cc1)N1CCN(Cc2cccc([N+](=O)[O-])c2)CC1	> 15	> 15
CCN(CC)c1ccc(CNC(C)C(O)c2ccccc2)cc1 (stereo unspecified)	4.1	0.98
CCCCCCCCn1cnc2ccccc21	> 15	> 15
O=C(NCC1Cc2cccc(-c3ccncc3)c2O1)c1csc2c1CCCC2 (stereo unspecified)	8.74	> 15
O=C1CC(c2ccc(Cl)cc2Cl)C2=C(CC(c3ccc(F)cc3)CC2=O)N1 (stereo unspecified)	> 15	> 15
N=C(N)N/N=C/c1ccncc1	3.49	> 15
O=C(Nc1cccc(Cl)c1)N1CCn2cccc2C1c1ccc(F)c(F)c1 (stereo unspecified)	10.3	6.67
CCO/C(O)=C1\C(C)=NC2=C(C(=O)CC(c3ccc(Cl)cc3)C2)C1c1cc(F)ccc1F (stereo unspecified)	> 15	> 15
COc1ccc(-n2c(=O)c3c4c(sc3n3c(SCc5ccccc5)nnc23)COC(C)(C)C4)cc1	11.3	> 15
CCOc1cc(C2Nc3cccc4cccc(c34)N2)ccc1O	> 15	> 15
CCOC(=O)c1ccc2nc(C)c(CN3CCN(C(c4ccccc4)c4ccccc4)CC3)c(O)c2c1	> 15	> 15

SMILES	EC50 (Plasmodium falciparum [1]) [µM]	EC50 (Plasmodium falciparum [2]) [µM]
Cc1ccccc1CN1C(=O)CSc2ccc(C(=O)NCCC(C)C)cc21	> 15	> 15
CCOc1ccc(Nc2cc(C)nc(Nc3ccc(OCC)cc3)n2)cc1	> 15	> 15
COc1ccccc1N1CCN(C(CNS(=O)(=O)c2ccc(Cl)cc2)c2cccnc2)CC1 (stereo unspecified)	> 15	4.64
CCOC(=O)C1=C(C)N=c2s/c(=C\c3ccc(O)cc3)c(=O)n2C1c1ccc(OC)c(OC)c1 (stereo unspecified)	> 15	1.4
CC(C)(C)c1ccc(C(=O)Nc2c3c(nn2-c2cccc(Cl)c2)CSC3)cc1	> 15	> 15
O=C(c1cccc(C(F)(F)F)c1)N1CCN(c2ccc(N3CCCCCC3)nn2)CC1	> 15	> 15
Cc1ccccc1-c1cnc(-c2cccnc2)nc1C1CCN(C(=O)CCCc2cccs2)CC1	5.76	4.53
CCCN(CCC)Cc1c(O)ccc2c(=O)c(Oc3ccc(OC)cc3)c(C(F)(F)F)oc12	> 15	2.95
CCN(CC)CCn1c(=N)n(CCOc2ccc(Cl)cc2Cl)c2ccccc21	> 15	7.48
Cc1c(C(=O)Nc2cc(Cl)ccc2Cl)cccc1[N+](=O)[O-]	> 15	> 15
CCC(C)NC(=O)N1CCC(n2nccc2NC(=O)CCCc2ccccc2)CC1 (stereo unspecified)	> 15	> 15
CCC(=O)N(Cc1ccccn1)c1nc2ccccc2s1	> 15	> 15
CC(=O)c1c(C(C)=O)c(C)n(Cc2ccc(Cl)cc2)c1C	> 15	6.63
Cc1ccc(C)c(C(Nc2ccccn2)c2cc(Cl)c3cccnc3c2O)c1 (stereo unspecified)	> 15	> 15
COc1ccc(OC)c(Nc2nc(NCCO)c3ccccc3n2)c1	> 15	> 15
CCN(CC)c1cc(C)c2cc(NC(=O)c3ccc(F)cc3)ccc2n1	> 15	> 15
CN(C)CCCNC(=O)c1cc(-c2ccc(Cl)s2)nc2ccccc12	> 15	> 15
CCc1c(C)nc(-n2nc(C)cc2NC(=O)c2cccc(OC)c2)nc1O	> 15	> 15
CN(C)CCNc1nc(Cc2ccccc2)nc2sc3c(c12)CCCC3	> 15	> 15
COc1ccccc1CCN1C(=O)CCC1CCNCCOc1ccccc1 (stereo unspecified)	> 15	> 15
Cc1cc(O)nc(Nc2nc(C)c3cccc(C)c3n2)n1	> 15	> 15
Cc1ccc(N2C(=O)CC(Sc3nccc(C)n3)C2=O)cc1 (stereo unspecified)	> 15	> 15
CC(=O)Nc1ccc(NC(=O)CSc2nn3c(=O)c(C)nnc3s2)cc1	> 15	4.96
COc1ccc(-c2nnc3c4ccccc4c(C)nn23)cc1S(=O)(=O)N1CCCCC1	> 15	> 15
Cc1ccc(S(=O)(=O)NCC(c2cccnc2)N2CCN(c3ccccc3F)CC2)cc1 (stereo unspecified)	> 15	> 15

Results, then the molecule that gave them:

EC50 (Plasmodium falciparum [1]) [µM]	EC50 (Plasmodium falciparum [2]) [µM]	SMILES
1.34	6.76	CC(C)=CCN1CCC(C(=O)Nc2ccc(-c3nc4ccccc4[nH]3)cc2)CC1
0.414	4.08	C#CCOc1ccc(C2C(C#N)=C(N)Oc3c2ccc2ccccc32)cc1OC (stereo unspecified)
3.4	> 15	CN(C)CCCNCc1ccc2[nH]c3c(c2c1)CCCC3
0.726	0.419	CC(C)(C)C1CCc2onc(C(=O)Nc3cc(Br)ccc3O)c2C1 (stereo unspecified)
0.0625	0.0571	CN1CCN(c2ccc(Nc3ccnc4cc(Cl)ccc34)cc2Cl)CC1
0.83	> 15	CCOCC(=O)Nc1cc(C(F)(F)F)ccc1Oc1cccc(Br)c1
1.53	1.7	CCN(CC)c1ccc(/C=N\Nc2ncc(F)c(N3CCOCC3)n2)c(O)c1
4.18	> 15	Cc1ccc(CN2CCCN(Cc3ccc(F)cc3)C2c2ccccc2F)cc1 (stereo unspecified)
2.58	3.1	C=CCN1C(=S)NC2c3cc(Br)ccc3OC1(C)C2C (stereo unspecified)
1.65	3.01	CCCCC(=O)NC(c1ccc(N(CC)CC)cc1)c1ccc2cccnc2c1O (stereo unspecified)
0.503	0.612	COc1ccc(OC)c(NC(=O)C2c3ccccc3C(=O)N(CC(C)C)C2c2cccs2)c1 (stereo unspecified)
4.2	> 15	Cc1cccc(-n2c(N)c(C#N)c3nc4ccccc4nc32)c1
4.21	> 15	CCCC(=O)NC(c1ccc(C)cc1)c1ccc2cccnc2c1O (stereo unspecified)
0.77	> 15	CCOC(=O)C1=C(C)N=c2s/c(=C\c3ccc(O)cc3)c(=O)n2C1c1ccc(OC)c(OCC)c1 (stereo unspecified)
3.85	3.8	CCCO/C(O)=C1\C(C)=NC2=C(C(=O)CC(c3ccccc3OC)C2)C1c1ccc(OC)c(OC)c1 (stereo unspecified)
1.06	1.72	COc1cccc(Nc2nc(NCC3CCCO3)c3ccccc3n2)c1 (stereo unspecified)
2.05	> 15	CCOC(=O)N1CCN(C(=O)Nc2cc(C(F)(F)F)cc(C(F)(F)F)c2)CC1
2.17	3.22	CCOC(=O)c1cc(NC(=O)CSc2nc3ccccc3[nH]2)ccc1Cl
1.77	2.44	Oc1c(C(Nc2ccccn2)c2cccc(Cl)c2Cl)ccc2cccnc12 (stereo unspecified)

EC50 (Plasmodium falciparum [1]) [µM]	EC50 (Plasmodium falciparum [2]) [µM]	SMILES
2.13	0.372	COc1ccc2c(c1)CN(Cc1ccc(F)cc1)CO2
3.65	4.6	CC(C)C(=O)NC(c1ccc(Cl)cc1Cl)c1ccc2cccnc2c1O (stereo unspecified)
2.89	0.28	Cc1ccc(/C=C2\Oc3c(ccc(O)c3CN3CCCCC3)C2=O)cc1
1.83	1.68	O=C(COc1ccccc1)NC(c1ccc(Cl)cc1)c1cc(Cl)c2cccnc2c1O (stereo unspecified)
4.61	3.5	COc1ccc(C(O)(CCC(C)C)C(CN2CCOCC2)c2ccc(Cl)cc2)cc1 (stereo unspecified)
1.81	2.93	Cc1ccnc(NC(c2cccc(OCc3ccccc3)c2)c2ccc3cccnc3c2O)c1 (stereo unspecified)
2.85	4.26	CCOc1ccccc1NC(=S)N1CCN(c2ccc(OC)cc2)C(C)C1 (stereo unspecified)
1.35	1.78	COc1ccc(Cl)cc1N(C)C(=O)c1cc2c(s1)-c1ccccc1S(=O)(=O)C2
3.01	1.66	COC(=O)C1C(=O)C2=C(CC1C)NC(=O)CC2c1ccc([N+](=O)[O-])cc1 (stereo unspecified)
0.844	1.14	CCCC(=O)NC(c1ccc(N(CC)CC)cc1)c1cc(Cl)c2cccnc2c1O (stereo unspecified)
0.239	0.0523	CC(C)(C)c1ccc2c(c1)CN(Cc1ccccc1)CO2
0.0566	0.0862	CC(=O)N(C1=C(N(C)C)C(=O)c2ccccc2C1=O)c1cccc(I)c1
1.93	2.57	CCC(C)c1ccc(NC(=O)c2ccc(Br)o2)c(O)c1 (stereo unspecified)
2.01	1.66	COc1cccc(C(=O)NC(c2ccc(Cl)cc2)c2cc(Cl)c3cccnc3c2O)c1 (stereo unspecified)
2.44	1.74	CN(C)c1cc[n+](CC(=O)c2ccc(Cl)cc2)cc1
4.19	9.06	COCc1cc(CN2CCN(c3ccccc3OC)CC2)c(O)c2ncccc12
3.54	4.88	CCOc1ccc(NC2=C(NCCO)C(=O)c3ccccc3C2=O)cc1
2.52	2.03	CCCCCCOC(=O)c1[nH]c2c(c1C)C(=O)CC(c1ccco1)C2 (stereo unspecified)
4.23	1.34	CC(C)(C)c1ccc(-c2cc(-c3cc(Cl)ccc3O)[nH]n2)cc1
